Patent EP0303243A2, “Use of atrial natriuretic factor (ANF), fragments and analogues thereof, for the treatment of cardiac disorders” (HOECHST AKTIENGESELLSCHAFT, priority 1987, dated 1989)
Non-standard residues stand in square brackets, D forms with d. Residues, ends and D or L forms follow the SMILES beside them.

Test system: isolierten arbeitenden Rattenherzen
Experiment: Isolated working rat heart (Langendorff) with coronary occlusion (ischaemia) and reperfusion
Design: species or system Ratten
Conditions: 10^-7 mol/l; for Myokardiale Gewebsspiegel von ATP / Myokardiale Gewebsspiegel von Glykogen / Myokardiale Gewebsspiegel von KP / Myokardiale Gewebsspiegel von Laktat: ischaemic hearts perfused for 65 Minuten; for KK / LDH / Laktat: coronary venous effluent
Source text: Die erfindungsgemäßen Verbindungen verbessern arrhythmische Zustände, die Hämodynamik und den Stoffwechsel des Herzens. Ihre Wirkung wurde an Ratten im Test nach Langendorff geprüft (0. Langendorff "Untersuchungen am überlebenden Säugetierherzen", Pflügers Archiv […], Bd. 61, 291 - 332; H. Bardenheuer, J. Schrader "Relationships between myocardial oxygen consumption, coronary flow and adenosin release in an improved isolated working heart preparation of guinea pigs", Circulation Research, 1983, Bd. 51, 263 - 271
Die Koronargefäße der isolierten arbeitenden Rattenherzen wurden retrograd über die Aorta mit Krebs-Henseleit-Lösung perfundiert. In den linken Ventrikel wurde ein Ballon verbracht, der mit einem künstlichen "systemischen" Kreislauf verbunden war. Die Druck-Volumenarbeit wurde erreicht, indem aus dem Ballon in den systemischen Kreislauf Kochsalzlösung gepumpt wurde. Die Herzen wurden mit einem Druck von 65 mmHg perfundiert, die Nachlast betrug ebenfalls 65 mmHg und die Vorlast 7,4 mmHg. In einer Kontrollperfusionsperiode wurden die Herzen über 20 Minuten perfundiert. Danach wurde die linke Koronararterie in der Nähe ihres Austritts aus der Aorta mit einem Clip verschlossen. Nach 15 Minuten (ischämische Periode) wurde der Verschluß geöffnet und es schloß sich eine 30 minütige Reperfusionsphase an. Während dieses experimentellen Zeitverlaufs untersuchten wir die Effekte des ANF auf kardiodynamische Parameter, wie linker Ventrikeldruck (LVD), dp/dt max, Herzfrequenz (HF), Koronarfluß (KorF), myokardialer Sauerstoffverbrauch (MSV), auf Enzyme im koronarvenösen Effluat wie Laktat dehydrogenase (LDH) und Kreatinkinase (KK) sowie Laktat, auf metabolische Parameter im Myokard wie Laktat, Glykogen, Adenosintriphosphat (ATP) und Kreatinphosphat (KP) und auf Reperfusionsarrhythmien mittels EKG.
Eine Substanz wird dann als wirksam bezeichnet, wenn nach dem Abklemmen der linken Herzkoronararterie und anschließender Reperfusion keine Arrhythmien - im Vergleich zur unbehandelten Kontrolle - entstehen, wobei das Kammerflimmern (KF) einen meßbaren Parameter darstellt.
Die erfindungsgemäßen Verbindungen wurden in den entsprechenden Konzentrationen vor und nach Okklusion der linken Koronararterie perfundiert (n:10); (n:4). Kontrollherzen wurden mit Krebs-Henseleit-Lösung perfundiert (n:10).

Compound | Myokardiale Gewebsspiegel von ATP | Myokardiale Gewebsspiegel von Glykogen | Myokardiale Gewebsspiegel von KP | Myokardiale Gewebsspiegel von Laktat | HF (Ischämische Periode) | KorF (Ischämische Periode) | LVD (Ischämische Periode) | LVdp/dtmax (Ischämische Periode) | HF (Kontrollperfusionsperiode) | KorF (Kontrollperfusionsperiode) | LVD (Kontrollperfusionsperiode) | LVdp/dtmax (Kontrollperfusionsperiode) | HF (Reperfusionsperiode) | KorF (Reperfusionsperiode) | LVD (Reperfusionsperiode) | LVdp/dtmax (Reperfusionsperiode) | KK (Ischämische Periode) | LDH (Ischämische Periode) | Laktat (Ischämische Periode) | KK (Kontrollperfusionsperiode) | further results
CC[C@H](C)[C@@H]1NC(=O)[C@H](CCCNC(=N)N)NC(=O)[C@@H](CC(C)C)NC(=O)[C@H]([C@@H](C)CC)NC(=O)[C@@H](CCCNC(=N)N)NC1=O [cyclo-(D-Arg-Ile-D-Leu-Arg-Ile)] (cyclo(I[dL]RI[dR])) | * 13,25 ± 0,41 µmol/g Trockengewicht | * 121,09 ± 2,97 µmol/g Trockengewicht | * 15,22 ± 0,83 µmol/g Trockengewicht | * 3,87 ± 0,46 µmol/g Trockengewicht | 299 ± 7 Schläge/Min | * 8,7 ± 0,4 ml/Min/g | * 49 ± 4 mmHg | * 1784 ± 109 mmHg • sec^-1 | 306 ± 7 Schläge/Min | 12,3 ± 0,8 ml/Min/g | 68 ± 3 mmHg | 2589 ± 101 mmHg • sec^-1 | 284 ± 10 Schläge/Min | * 12,9 ± 0,9 ml/Min/g | 48 ± 6 mmHg | 1724 ± 111 mmHg • sec^-1 | * 32 ± 5 mU/min/g | * 22 ± 4 mU/min/g | * 0,24 ± 0,03 µmol/min/g | 32 ± 4 mU/min/g | LDH (Kontrollperfusionsperiode): 29 ± 5 mU/min/g; Laktat (Kontrollperfusionsperiode): * 0,18 ± 0,04 µmol/min/g; KK (Reperfusionsperiode): * 20 ± 4 mU/min/g; LDH (Reperfusionsperiode): * 14 ± 3 mU/min/g; Laktat (Reperfusionsperiode): * 0,16 ± 0,05 µmol/min/g
human ANF-(103-126) [h-ANF(103-126)] | * 11,01 ± 0,59 µmol/g Trockengewicht | * 113,15 ± 3,74 µmol/g Trockengewicht | * 13,89 ± 0,99 µmol/g Trockengewicht | * 4,03 ± 0,62 µmol/g Trockengewicht | 301 ± 5 Schläge/Min | * 9,0 ± 0,2 ml/Min/g | * 45 ± 3 mmHg | * 1663 ± 117 mmHg • sec^-1 | 298 ± 4 Schläge/Min | 11,1 ± 0,2 ml/Min/g | * 55 ± 2 mmHg | * 2125 ± 91 mmHg • sec^-1 | 280 ± 4 Schläge/Min | * 11,7 ± 0,3 ml/Min/g | * 37 ± 2 mmHg | * 1385 ± 91 mmHg • sec^-1 | * 30 ± 2 mU/min/g | * 20 ± 2 mU/min/g | * 0,18 ± 0,01 µmol/min/g | 28 ± 3 mU/min/g | MSV (Ischämische Periode): * 11,5 ± 0,3 ml/min/100 g; MSV (Kontrollperfusionsperiode): * 14,5 ± 0,3 ml/min/100 g; MSV (Reperfusionsperiode): 14,7 ± 0,4 ml/min/100 g; LDH (Kontrollperfusionsperiode): 21 ± 2 mU/min/g; Laktat (Kontrollperfusionsperiode): * 0,13 ± 0,01 µmol/min/g; KK (Reperfusionsperiode): * 18 ± 2 mU/min/g; LDH (Reperfusionsperiode): * 12 ± 1 mU/min/g; Laktat (Reperfusionsperiode): * 0,12 ± 0,04 µmol/min/g; KF (ventricular fibrillation (Kammerflimmern), Reperfusionsperiode): * 2,7 ± 0,9 Min
